Data published in patent US11166960B2, “Modified release preparations containing oxcarbazepine and derivatives thereof” (Supernus Pharmaceuticals, Inc., priority 2006, dated 2021).
Read-outs that look alike come from different tables or passages of the source.

Assays:
[1] = Solubility of oxcarbazepine in the presence of excipients; assay type: physicochemical
Method: The solubility of oxcarbazepine in the presence of excipients was evaluated as follows: Excipients were dissolved in phosphate buffer to make solutions with concentrations shown in Table 3. One gram of oxcarbazepine was then mixed with 19 gm of the excipient solution. The mixture was rocked overnight at room temperature and then filtered using 0.22 μm filter. The filtrates were analyzed by HPLC.

[2] = as above; assay type: physicochemical; conditions: de-ionized water, thermodynamic from solid

solubility ([1]; Kollidon 17 1% w/w in phosphate buffer): 171.7 µg/mL
solubility ([1]; aqueous with cosolvent or surfactant or cyclodextrin, thermodynamic from solid, Hydroxypropyl betacyclodextrin (HBCD) 5% w/w in phosphate buffer, read-out: Solubility): 1020 µg/mL
solubility ([1]; aqueous with cosolvent or surfactant or cyclodextrin, thermodynamic from solid, SLS/Stearic Acid/PEG400 5, 1, 1% w/w in phosphate buffer, read-out: Solubility): 3280 µg/mL
solubility ([1]; phosphate buffer (control, no excipient), aqueous buffer, thermodynamic from solid, Phosphate Buffer Control, room temperature overnight, read-out: Solubility): 401 µg/mL
solubility ([1]; phosphate buffer with 1% w/w Cremophor RH40, aqueous with cosolvent or surfactant or cyclodextrin, thermodynamic from solid, Cremophor RH40 1% w/w in phosphate buffer, read-out: Solubility): 314 µg/mL
solubility ([1]; phosphate buffer with 1% w/w SLS and 1% w/w HBCD, aqueous with cosolvent or surfactant or cyclodextrin, thermodynamic from solid, SLS/HBCD 1, 1% w/w in phosphate buffer, read-out: Solubility): 349 µg/mL
solubility ([1]; phosphate buffer with 5% w/w SLS and 1% w/w PEG400, aqueous with cosolvent or surfactant or cyclodextrin, thermodynamic from solid, SLS/Polyethylene Glycol 400 (PEG400) 5, 1% w/w in phosphate buffer, read-out: Solubility): 3050 µg/mL
solubility ([1]; phosphate buffer with 5% w/w docusate sodium, aqueous with cosolvent or surfactant or cyclodextrin, thermodynamic from solid, Docusate Sodium 5% w/w in phosphate buffer, read-out: Solubility): 6550 µg/mL
solubility ([1]; phosphate buffer with 5% w/w sodium lauryl sulfate (SLS), aqueous with cosolvent or surfactant or cyclodextrin, thermodynamic from solid, Sodium Lauryl Sulfate (SLS) 5% w/w in phosphate buffer, read-out: Solubility): 4110 µg/mL
solubility [2]: 273 µg/mL
SMILES: NC(=O)N1c2ccccc2CC(=O)c2ccccc21 [Oxcarbazepine]
